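96-well plates; 48 h exposure; 5 concentrations. Endpoints by linear interpolation between flanking doses. Not reached: highest tested concentration assigned. GI50 = concentration required for 50% inhibition of growth.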 The source made the active and inactive calls. Cut-off read from the data, not from the text of the source: active = GI50 up to about 1.1 µM and inactive = higher.
How the values were obtained:
Experiment in all cases: growth of human tumour cells (NCI), 48 h
[1] = system: HOP-62
[2] = system: SF-268
[3] = system: SNB-19
[4] = system: UACC-257
[5] = system: CAKI-1
[6] = system: ACHN
[7] = system: OVCAR-5
[8] = system: SNB-75
[9] = system: OVCAR-4
[10] = system: SF-539
[11] = system: HCC 2998
[12] = system: EKVX
[13] = system: HCT-15
[14] = system: SN12C
[15] = system: NCI-H23
[16] = system: OVCAR-3
[17] = system: NCI-H226

Row | Compound | GI50 [1] | GI50 [2] | GI50 [3] | GI50 [4] | GI50 [5] | GI50 [6] | GI50 [7] | GI50 [8] | GI50 [9] | GI50 [10] | GI50 [11] | GI50 [12] | GI50 [13] | GI50 [14] | GI50 [15] | GI50 [16] | GI50 [17]
1 | COC(=O)C1(O)c2ccccc2N=C2C1CCN2C (stereo not given) | > 100 µM (inactive) | > 100 µM (inactive) | > 100 µM (inactive) | > 100 µM (inactive) | > 100 µM (inactive) | > 100 µM (inactive) | > 100 µM (inactive) | 26.8 µM (inactive) | > 100 µM (inactive) | > 100 µM (inactive) | > 100 µM (inactive) | > 100 µM (inactive) | > 100 µM | > 100 µM (inactive) | > 100 µM (inactive) |  | 
2 | COc1cc2c(cc1OC)-c1c(cc(OC)c(OC)c1OC)C2=O | 25.9 µM (inactive) | > 100 µM (inactive) | > 100 µM (inactive) | > 100 µM (inactive) |  | > 100 µM (inactive) | > 100 µM (inactive) | 18.2 µM (inactive) |  | > 100 µM (inactive) | > 100 µM (inactive) | > 100 µM (inactive) | > 100 µM | > 100 µM (inactive) | > 100 µM (inactive) | > 100 µM (inactive) | > 100 µM (inactive)
3 | O=C1C2Nc3ccccc3SC2C(=O)N1c1ccc(Br)cc1 (stereo not given) | 17.1 µM (inactive) | 73.1 µM (inactive) | 34.3 µM (inactive) | 26.5 µM (inactive) |  | 17.6 µM (inactive) | > 100 µM (inactive) | 24.5 µM (inactive) | 12.8 µM (inactive) | 26.4 µM (inactive) | 45.8 µM (inactive) | 23.4 µM (inactive) | 78.7 µM | 35.9 µM (inactive) | 36.5 µM (inactive) | 23.7 µM (inactive) | 7.24 µM (inactive)
4 | Cc1ccc(Cl)c(NC(=O)C(=O)C(C(=O)c2ccncc2)C2OC(=O)c3ccccc32)c1 (stereo not given) | > 100 µM (inactive) | > 100 µM (inactive) |  | > 100 µM (inactive) | > 100 µM (inactive) | > 100 µM (inactive) |  | > 100 µM (inactive) | > 100 µM (inactive) | > 100 µM (inactive) | > 100 µM (inactive) | > 100 µM (inactive) | > 100 µM | > 100 µM (inactive) | > 100 µM (inactive) |  | > 100 µM (inactive)
5 | CCO/S(=N/S(=O)(=O)c1ccccc1)c1ccccc1[N+](=O)[O-] (stereo not given) | > 100 µM (inactive) | > 100 µM (inactive) | > 100 µM (inactive) | > 100 µM (inactive) | > 100 µM (inactive) |  | > 100 µM (inactive) | > 100 µM (inactive) | 44.1 µM (inactive) | > 100 µM (inactive) | > 100 µM (inactive) | > 100 µM (inactive) | > 100 µM | > 100 µM (inactive) | > 100 µM (inactive) | > 100 µM (inactive) | > 100 µM (inactive)
6 | CC(C)(C)C(=O)C(c1ccc(-c2cscn2)cc1)c1ccc(-c2cscn2)cc1 | 18.5 µM (inactive) | 25.5 µM (inactive) | 28.1 µM (inactive) | 76 µM (inactive) | 33.4 µM (inactive) | 32 µM (inactive) | > 100 µM (inactive) | 6.25 µM (inactive) | 3.25 µM (inactive) | 23.6 µM (inactive) | > 100 µM (inactive) | 33.3 µM (inactive) | > 95.1 µM | 34.7 µM (inactive) | 30.5 µM (inactive) | 28.1 µM (inactive) | > 49.7 µM (inactive)
7 | Cc1cc(C(=O)N2CCN(Cc3ccccc3)CC2)c(C)o1 | > 100 µM (inactive) | > 100 µM (inactive) | > 100 µM (inactive) | > 100 µM (inactive) | > 100 µM (inactive) | > 100 µM (inactive) | > 100 µM (inactive) | > 100 µM (inactive) | > 100 µM (inactive) | > 100 µM (inactive) | > 100 µM (inactive) | > 100 µM (inactive) | > 100 µM | > 100 µM (inactive) | > 100 µM (inactive) | > 100 µM (inactive) | 
8 | CC1(C)COC(C2(C)C(=O)C=C(c3ccccc3)c3ccccc32)=N1 (stereo not given) | 64.9 µM (inactive) | 58.2 µM (inactive) | 50.5 µM (inactive) | 31.4 µM (inactive) | 42.6 µM (inactive) | 34.9 µM (inactive) |  | 33.4 µM (inactive) | 34.8 µM (inactive) | 43.6 µM (inactive) |  | 45.4 µM (inactive) | 27.4 µM | 30.5 µM (inactive) | 47.1 µM (inactive) | 30.4 µM (inactive) | 52.1 µM (inactive)
9 | CC1=CP(=O)(c2ccccc2)C=C(C)C1=C(Cl)Cl (stereo not given) | 3.26 µM (inactive) | 3.98 µM (inactive) | 17.7 µM (inactive) |  |  |  |  | 4.83 µM (inactive) | 12.9 µM (inactive) | 5.24 µM (inactive) | 15 µM (inactive) |  |  | 15.6 µM (inactive) | 17.4 µM (inactive) | 16 µM (inactive) | 3.19 µM (inactive)
10 | CCOC(=O)NC(=O)c1cn(CCCOC(=O)NCCCCCCNC(=O)OCCCn2c(=O)c(C(=O)NC(=O)OCC)cn(C)c2=O)c(=O)n(C)c1=O |  | > 100 µM (inactive) |  | > 100 µM (inactive) | > 100 µM (inactive) | > 100 µM (inactive) | > 100 µM (inactive) | 22.2 µM (inactive) | > 100 µM (inactive) |  | > 100 µM (inactive) |  | > 100 µM | > 100 µM (inactive) | > 100 µM (inactive) | > 100 µM (inactive) | > 100 µM (inactive)
11 | COc1ccc(O)c2c(=O)ccccc12 | > 100 µM (inactive) | > 100 µM (inactive) | > 100 µM (inactive) | > 100 µM (inactive) |  | > 100 µM (inactive) | > 100 µM (inactive) | > 100 µM (inactive) | > 100 µM (inactive) | > 100 µM (inactive) | > 100 µM (inactive) | > 100 µM (inactive) | > 100 µM | > 100 µM (inactive) | > 100 µM (inactive) | > 100 µM (inactive) | 46.2 µM (inactive)
12 | COc1ccc(/C=N/N=C(\N)NO)c(OC)c1 | 16.2 µM (inactive) | 48.3 µM (inactive) | > 100 µM (inactive) | 80.7 µM (inactive) | 19.2 µM (inactive) | 21 µM (inactive) | 9.77 µM (inactive) |  | > 100 µM (inactive) | 23.3 µM (inactive) | 12.2 µM (inactive) | 38.3 µM (inactive) | 26.9 µM | 67.8 µM (inactive) | 46.7 µM (inactive) | 37.7 µM (inactive) | 34.1 µM (inactive)
13 | NC(=S)NNc1c([N+](=O)[O-])cnn(-c2ccccc2)c1=O | 19.2 µM (inactive) | 21.1 µM (inactive) | 19 µM (inactive) | 22.9 µM (inactive) | 19.6 µM (inactive) | 18.7 µM (inactive) | 18.4 µM (inactive) | 19.4 µM (inactive) | 17.4 µM (inactive) | 18.8 µM (inactive) | 18.7 µM (inactive) |  | 17.3 µM | 17.1 µM (inactive) | 19 µM (inactive) | 17.6 µM (inactive) | 19.1 µM (inactive)
14 | CCOC(=O)NC(=O)c1cn(C2CCCCC2)c(=O)[nH]c1=O | 38 µM (inactive) | > 100 µM (inactive) | > 100 µM (inactive) | > 100 µM (inactive) | > 100 µM (inactive) | 35.6 µM (inactive) | > 100 µM (inactive) |  | 67.6 µM (inactive) | 39.7 µM (inactive) | 53.6 µM (inactive) | > 100 µM (inactive) | 53.8 µM | > 100 µM (inactive) | > 100 µM (inactive) | > 100 µM (inactive) | > 100 µM (inactive)
15 | COc1cc2c[n+]3ccc4cc(OC)c(OC)cc4c3cc2cc1O |  | > 100 µM (inactive) | > 100 µM (inactive) | > 100 µM (inactive) |  | > 100 µM (inactive) | > 100 µM (inactive) | > 100 µM (inactive) |  | > 100 µM (inactive) | > 100 µM (inactive) | > 100 µM (inactive) | > 100 µM | > 100 µM (inactive) | > 100 µM (inactive) |  | 
16 | CC1CCCc2c1c1ccc3c(O)cccc3c1oc2=O (stereo not given) | 18.7 µM (inactive) | 17.3 µM (inactive) | 34.7 µM (inactive) | > 100 µM (inactive) | 39.4 µM (inactive) | 19.7 µM (inactive) | 71.8 µM (inactive) | 8.15 µM (inactive) | 14.1 µM (inactive) |  | > 100 µM (inactive) | 2.05 µM (inactive) | > 100 µM | 43 µM (inactive) | 29.9 µM (inactive) | 64.1 µM (inactive) | > 100 µM (inactive)
17 | Cc1ccc(NC(=O)CC2Sc3ccccc3NC2=O)c(C)c1 (stereo not given) | 12.1 µM (inactive) | 21.4 µM (inactive) | 14.7 µM (inactive) | 2.59 µM (inactive) | 21.5 µM (inactive) | 18.8 µM (inactive) | 23.3 µM (inactive) | 4.52 µM (inactive) | 22 µM (inactive) | 14 µM (inactive) | 11 µM (inactive) | 46.7 µM (inactive) |  | 38.2 µM (inactive) | 16.2 µM (inactive) | 12.2 µM (inactive) | 14.8 µM (inactive)
18 | Nc1ncnc2c1ncn2C1(CO)OC(CO)C(O)C1O (stereo not given) | > 100 µM (inactive) | > 100 µM (inactive) | > 100 µM (inactive) | > 100 µM (inactive) | > 100 µM (inactive) | > 100 µM (inactive) | > 100 µM (inactive) | > 100 µM (inactive) | > 100 µM (inactive) |  | > 100 µM (inactive) |  | > 100 µM | > 100 µM (inactive) | > 100 µM (inactive) |  | > 100 µM (inactive)
19 | COc1cc(O)c2c(c1)O[C@@H]1OCC[C@H]21 | > 100 µM (inactive) |  | > 100 µM (inactive) | > 100 µM (inactive) |  | > 100 µM (inactive) | > 100 µM (inactive) | > 100 µM (inactive) | > 100 µM (inactive) | > 100 µM (inactive) | > 100 µM (inactive) | > 100 µM (inactive) | > 100 µM | > 100 µM (inactive) | > 100 µM (inactive) | > 100 µM (inactive) | > 100 µM (inactive)

Reference: ChEMBL document CHEMBL1201862, “PubChem BioAssay data set” (2004)
